Patent US7790763B2, “Substituted phenyl methanone derivatives” (Hoffmann-La Roche Inc., priority 2005, dated 2010)

molecular target: T1, mGlyT-1b (Mus musculus, UniProt P28571); test: Glycine uptake inhibition assay (mGlyT-1b); assay type: cell-based; conditions: [3H]-glycine uptake, Flp-in-CHO cells transfected with mGlyT-1b cDNA, 20 min preincubation at 22° C.; read-out: IC50 (μM) at GlyT-1
T1 construct: host or cells: Flp-in-CHO cells, stably transfected
T1 sequence (P28571 1-651 isoform P28571-2): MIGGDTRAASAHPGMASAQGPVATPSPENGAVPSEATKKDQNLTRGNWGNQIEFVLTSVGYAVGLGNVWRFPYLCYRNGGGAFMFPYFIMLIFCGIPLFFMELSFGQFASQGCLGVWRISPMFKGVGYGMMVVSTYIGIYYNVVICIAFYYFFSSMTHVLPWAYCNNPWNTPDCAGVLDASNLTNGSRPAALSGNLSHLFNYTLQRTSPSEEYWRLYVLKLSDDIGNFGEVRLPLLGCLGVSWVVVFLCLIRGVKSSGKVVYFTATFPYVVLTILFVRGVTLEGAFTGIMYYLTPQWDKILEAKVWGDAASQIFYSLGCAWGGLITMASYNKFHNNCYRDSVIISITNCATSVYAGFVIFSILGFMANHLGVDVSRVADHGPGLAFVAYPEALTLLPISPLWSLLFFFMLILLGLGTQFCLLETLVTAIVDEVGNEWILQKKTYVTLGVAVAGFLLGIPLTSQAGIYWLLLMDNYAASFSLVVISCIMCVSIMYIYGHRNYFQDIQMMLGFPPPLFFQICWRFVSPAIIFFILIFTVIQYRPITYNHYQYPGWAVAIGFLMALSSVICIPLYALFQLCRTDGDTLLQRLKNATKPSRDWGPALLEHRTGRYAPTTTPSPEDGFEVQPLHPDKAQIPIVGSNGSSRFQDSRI
Method: DMEM complete medium: Nutrient mixture F-12 (Gibco Life-technologies), fetal bovine serum (FBS) 5%, (Gibco life technologies), Penicillin/Streptomycin1% (Gibco life technologies), Hygromycin 0.6 mg/ml (Gibco life technologies), Glutamine 1 mM Gibco life technologies)
Uptake buffer (UB): 150 mM NaCl, 10 mM Hepes-Tris, pH 7.4, 1 mM CaCl2, 2.5 mM KCl, 2.5 mM MgSO4, 10 mM (+) D-glucose. Flp-in™-CHO (Invitrogen Cat n° R758-07)cells stably transfected with mGlyT1b cDNA.
Glycine Uptake Inhibition Assay (mGlyT-1b)
On day 1 mammalian cells, (Flp-in™-CHO), transfected with mGlyT-1b cDNA, were plated at the density of 40,000 cells/well in complete F-12 medium, without hygromycin in 96-well culture plates. On day 2, the medium was aspirated, and the cells were washed twice with uptake buffer (UB). The cells were then incubated for 20 min at 22° C. with either (i) no potential competitor, (ii) 10 mM non-radioactive glycine, (iii) a concentration of a potential inhibitor. A range of concentrations of the potential inhibitor was used to generate data for calculating the concentration of inhibitor resulting in 50% of the effect (e.g. IC50, the concentration of the competitor inhibiting glycine uptake of 50%). A solution was then immediately added containing [^3H]-glycine 60 nM (11-16 Ci/mmol) and 25 μM non-radioactive glycine. The plates were incubated with gentle shaking, and the reaction was stopped by aspiration of the mixture and washing (three times) with ice-cold UB. The cells were lysed with scintillation liquid, shaken 3 hours and the radioactivity in the cells was counted using a scintillation counter.

Row | IC50 | SMILES
1 | 0.55 µM | CC(C)Oc1ccc(S(C)(=O)=O)cc1C(=O)N1CCC(Oc2ccc(C(F)(F)F)cc2)C1 (racemic) [Example 13, Rac-(2-Isopropoxy-5-methanesulfonyl-phenyl)-[3-(4-trifluoromethyl-phenoxy)-pyrrolidin-1-yl]-methanone]
2 | 0.87 µM | CC(C)Oc1ccc(S(C)(=O)=O)cc1C(=O)N1CCC(Oc2ccc3ccccc3c2)C1 (racemic) [Example 18, Rac-(2-Isopropoxy-5-methanesulfonyl-phenyl)-[3-(naphthalen-2-yloxy)-pyrrolidin-1-yl]-methanone]
3 | 1 µM | CC(C)Oc1ccc(S(C)(=O)=O)cc1C(=O)N1CCC(Oc2ccc([N+](=O)[O-])cc2)CC1 [Example 4, (2-Isopropoxy-5-methanesulfonyl-phenyl)-[4-(4-nitro-phenoxy)-piperidin-1-yl]-methanone]
4 | 0.93 µM | CC(=O)c1ccc(OC2CCN(C(=O)c3cc(S(C)(=O)=O)ccc3OC(C)C)CC2)c(F)c1 [Example 5, 1-{3-Fluoro-4-[1-(2-isopropoxy-5-methanesulfonyl-benzoyl)-piperidin-4-yloxy]-phenyl}-ethanone]
5 | 0.63 µM | CC(C)Oc1ccc(S(C)(=O)=O)cc1C(=O)N1CCC(Oc2cc(C(F)(F)F)ccc2F)CC1 [Example 8, [4-(2-Fluoro-5-trifluoromethyl-phenoxy)-piperidin-1-yl]-(2-isopropoxy-5-methanesulfonyl-phenyl)-methanone]
6 | 0.87 µM | CC(C)Oc1ccc(S(C)(=O)=O)cc1C(=O)N1CC(Oc2ccc(C(F)(F)F)cc2)C1 [Example 21, (2-Isopropoxy-5-methanesulfonyl-phenyl)-[3-(4-trifluoromethyl-phenoxy)-azetidin-1-yl]-methanone]
7 | 0.7 µM | CC(C)Oc1ccc(S(C)(=O)=O)cc1C(=O)N1CC(Oc2cccc(C(F)(F)F)c2)C1 [Example 22, (2-Isopropoxy-5-methanesulfonyl-phenyl)-[3-(3-trifluoromethyl-phenoxy)-azetidin-1-yl]-methanone]
8 | 0.39 µM | C[C@H](Oc1ccc(S(C)(=O)=O)cc1C(=O)N1CC(Oc2ccc(C(F)(F)F)cc2)C1)C(F)(F)F [Example 23, [5-Methanesulfonyl-2-((S)-2,2,2-trifluoro-1-methyl-ethoxy)-phenyl]-[3-(4-trifluoromethyl-phenoxy)-azetidin-1-yl]-methanone]
9 | 0.84 µM | C[C@@H](Oc1ccc(S(C)(=O)=O)cc1C(=O)N1CC(Oc2ccc(C(F)(F)F)cc2)C1)C(F)(F)F [Example 24, [5-Methanesulfonyl-2-((R)-2,2,2-trifluoro-1-methyl-ethoxy)-phenyl]-[3-(4-trifluoromethyl-phenoxy)-azetidin-1-yl]-methanone]
10 | 0.078 µM | CS(=O)(=O)c1ccc(N2CCOCC2)c(C(=O)N2CCC(Oc3ccc(C(F)(F)F)cc3)C2)c1 (centres unmarked) [Example 25, (5-Methanesulfonyl-2-morpholin-4-yl-phenyl)-[3-(4-trifluoromethyl-phenoxy)-pyrrolidin-1-yl]-methanone]
11 | 0.109 µM | CNS(=O)(=O)c1ccc(OC2CCCC2)c(C(=O)N2CCC(Oc3ccc(C(F)(F)F)cc3)C2)c1 (centres unmarked) [Example 26, 4-Cyclopentyloxy-N-methyl-3-[3-(4-trifluoromethyl-phenoxy)-pyrrolidine-1-carbonyl]-benzenesulfonamide]
